# ChEMBL document CHEMBL4651402, “Screening of ~5500 FDA-approved drugs and clinical candidates for anti-SARS-CoV-2 activity” (2021)
# Structures can show the parent of a compound that is named as a salt.
# Test system: SARS-CoV-2
# Assay: microbe, parasite or virus in culture
# Conditions: Severe acute respiratory syndrome coronavirus 2, Vero C1008, 48 h
SMILES,IC50,IC50 (read-out: pIC50 (converted))
O=c1[nH]c(=O)c(Cc2cccc(C(F)(F)F)c2)c([C@H]2CC[C@H](c3ccccc3)CC2)[nH]1 [MIRICORILANT],> 20 µM,> 20 µM
CCCC(=O)c1cc(F)ccc1OCC(O)CNC(C)(C)C (configuration not stated) [BUTOFILOLOL],> 20 µM,> 20 µM
Cc1cnc(Nc2ccc(OCCN3CCCC3)cc2)nc1Nc1cccc(S(=O)(=O)NC(C)(C)C)c1 [FEDRATINIB],> 20 µM,> 20 µM
COC(=O)[C@H](c1ccccc1)N1CCC(c2ccc(NC(=O)c3ccccc3-c3ccc(C(F)(F)F)cc3)cc2)CC1 [USISTAPIDE],> 20 µM,> 20 µM
CC(C)(N)Cc1ccccc1 [PHENTERMINE],> 20 µM,> 20 µM
CC1(C)N=C(N)N=C(N)N1c1ccc(Cl)cc1 [CYCLOGUANIL],> 20 µM,> 20 µM
CCN(CC)CC(=O)Nc1c(C)cccc1C [LIDOCAINE],> 20 µM,> 20 µM
C/C=C/C/C=C/CCC(=O)[C@H]1O[C@H]1C(N)=O [CERULENIN],> 20 µM,> 20 µM
Cc1cccc(Nc2ccncc2S(=O)(=O)NC(=O)NC(C)C)c1 [TORSEMIDE],> 20 µM,> 20 µM
CCC(C)n1ncn(-c2ccc(N3CCN(c4ccc(OC[C@@H]5CO[C@@](Cn6cncn6)(c6ccc(Cl)cc6Cl)O5)cc4)CC3)cc2)c1=O (some centres not stated),> 20 µM,> 20 µM
CC(C)=CCc1c2c(c3occ(-c4ccc(O)cc4)c(=O)c3c1O)C=CC(C)(C)O2 [OSAJIN],> 20 µM,> 20 µM
CC[C@H](C)C(=O)O[C@H]1C[C@@H](C)C=C2C=C[C@H](C)[C@H](CC[C@@H]3C[C@@H](O)CC(=O)O3)[C@H]21 [LOVASTATIN],> 20 µM,> 20 µM
CC1CN(c2cc3c(cc2F)c(=O)c(C(=O)O)cn3-c2ccc(F)cc2F)CCN1 (configuration not stated) [TEMAFLOXACIN],> 20 µM,> 20 µM
CCCNC(C)C(=O)Nc1ccccc1C (configuration not stated) [PRILOCAINE],> 20 µM,> 20 µM
COc1ccc(/C=C/C(=O)/C=C(O)/C=C/c2ccc(OC)c(OC)c2)cc1OC,> 20 µM,> 20 µM
C[N+](C)(C)CCOP(=O)([O-])OC[C@@H](O)CO,> 20 µM,> 20 µM
CC(C)S(=O)(=O)n1c(N)nc2ccc(C(=NO)c3ccccc3)cc21 [VIROXIME],> 20 µM,> 20 µM
NCCCCCCNS(=O)(=O)c1cccc2c(Cl)cccc12,> 20 µM,> 20 µM
O=C(O)CCCCO/N=C(/c1cccnc1)c1cccc(C(F)(F)F)c1 [RIDOGREL],> 20 µM,> 20 µM
OC[C@@H](O)[C@H](O)[C@@H](O)CO [XYLITOL],> 20 µM,> 20 µM
Cn1ncc(-c2nc(N[C@H]3CC[C@H](N)CC3)ncc2Cl)c1CC1CC1 [BTX-A51],> 20 µM,> 20 µM
CC12CCC3c4ccc(OC(=O)c5ccccc5)cc4CCC3C1CCC2O (configuration not stated),> 20 µM,> 20 µM
C/C=C(/C(=C/C)c1ccc(O)cc1)c1ccc(O)cc1 [DIENESTROL],> 20 µM,> 20 µM
CC(=O)Oc1cccc2c1C(=O)c1c(OC(C)=O)cc(C(=O)O)cc1C2=O [DIACEREIN],> 20 µM,> 20 µM
NC(=O)CC[C@H](N)C(=O)O [GLUTAMINE],> 20 µM,> 20 µM
CC1C(=O)OC2CCN3CC=C(COC(=O)C(C)(O)C1(C)O)C23 (configuration not stated),> 20 µM,> 20 µM

SMILES,IC50,IC50 (read-out: pIC50 (converted))
CN(C)CCCSc1ccccc1NC(=O)/C=C/c1ccccc1 [CINANSERIN],> 20 µM,> 20 µM
Cc1cc(Nc2cc(N3CCN(C)CC3)nc(/C=C/c3ccccc3)n2)n[nH]1 [ENMD-2076],> 20 µM,> 20 µM
O=c1cc[nH]c(=O)[nH]1 [URACIL],> 20 µM,> 20 µM
Cc1ccc(/C(=C\CN2CCCC2)c2cccc(/C=C/C(=O)O)n2)cc1 [ACRIVASTINE],> 20 µM,> 20 µM
C=C(C)Cn1c(N)cc(=O)n(C)c1=O [AMISOMETRADINE],> 20 µM,> 20 µM
CN(C)CCC(c1ccccc1)C1CCCCC1 (configuration not stated) [GAMFEXINE],> 20 µM,> 20 µM
CCN(CC)CCNC(=O)COc1ccc(Cl)cc1 [CLOFEXAMIDE],> 20 µM,> 20 µM
COc1ccc(-c2cc(=S)ss2)cc1 [ANETHOLTRITHION],> 20 µM,> 20 µM
CC(C)=CC[C@@H](O)C1=CC(=O)c2c(O)ccc(O)c2C1=O [SHIKONIN],> 20 µM,> 20 µM
CN1C(=O)CC2(CCN(CCCC(=O)c3ccc(F)cc3)CC2)C1=O [ROXOPERONE],> 20 µM,> 20 µM
CN1CCN2c3ccccc3Cc3ccccc3C2C1 (configuration not stated) [MIANSERIN],> 20 µM,> 20 µM
CC(=O)N[C@@H]1[C@@H](O)[C@@H](O)[C@@H](CO)O[C@@H]1O,> 20 µM,> 20 µM
c1ccc2c(c1)Nc1ccccc1S2 [PHENOTHIAZINE],> 20 µM,> 20 µM
Cc1cccc(CN2CCN(C(c3ccccc3)c3ccc(Cl)cc3)CC2)c1 (configuration not stated) [MECLIZINE],> 20 µM,> 20 µM
NC(=O)c1nnn(Cc2cc(Cl)c(C(=O)c3ccc(Cl)cc3)c(Cl)c2)c1N [CARBOXYAMIDOTRIAZOLE],> 20 µM,> 20 µM
O=C(Oc1ccc(Br)cc1)N1CCN2CCC1CC2 [SSR180711],> 20 µM,> 20 µM
O=c1ncn2nc(Sc3ccc(F)cc3F)ccc2c1-c1c(Cl)cccc1Cl [NEFLAMAPIMOD],> 20 µM,> 20 µM
CC(C)(C(=O)NCC(F)(F)C(F)(F)F)C(=O)N[C@@H]1C(=O)Nc2ccccc2-c2ccccc21 [RG-4733],> 20 µM,> 20 µM
COc1ccc2c3c1O[C@H]1[C@@H](O)C=C[C@H]4[C@@H](C2)NCC[C@@]341 [NORCODEINE],> 20 µM,> 20 µM
CCCC(=O)OCOC(=O)C(C)(C)C [AN-9],> 20 µM,> 20 µM
CC(=O)NC(Cc1ccccc1)C(=O)O (configuration not stated) [AFALANINE],> 20 µM,> 20 µM
COC(=O)/C=C/C(=O)OCCN1C(=O)CCC1=O [DIROXIMEL FUMARATE],> 20 µM,> 20 µM
COc1cc2c(cc1OC)[C@H]1CC(=O)[C@H](CC(C)C)CN1CC2,> 20 µM,> 20 µM
O=C1Cc2cc(CCN3CCN(c4nsc5ccccc45)CC3)c(Cl)cc2N1 [ZIPRASIDONE],> 20 µM,> 20 µM
CCCc1c2nc(C(=O)O)cc(NC)c2cc2c(=O)cc(C(=O)O)oc12 [MINOCROMIL],> 20 µM,> 20 µM
C[C@@H]1C[C@H]2[C@@H]3C[C@H](F)C4=CC(=O)C=C[C@]4(C)[C@@]3(Cl)[C@@H](O)C[C@]2(C)[C@H]1C(=O)COC(=O)C(C)(C)C [CLOCORTOLONE PIVALATE],> 20 µM,> 20 µM

SMILES,IC50,IC50 (read-out: pIC50 (converted))
C[C@]12CC[C@@H]3c4ccc(O)cc4CC[C@H]3[C@@H]1C[C@@H](O)[C@@H]2O [ESTRIOL],> 20 µM,> 20 µM
NC(CSCC(=O)O)C(=O)O (configuration not stated),> 20 µM,> 20 µM
O=C1N[C@@H](C(=O)O)CS1,> 20 µM,> 20 µM
CC(C)NCC(O)c1ccc([N+](=O)O)cc1 (configuration not stated),> 20 µM,> 20 µM
C[N+]1(C)CCC(=C(c2ccccc2)c2ccccc2)CC1,> 20 µM,> 20 µM
NC(=O)C1CC2(NC(=O)NC2=O)c2cc(F)ccc2O1 (configuration not stated),> 20 µM,> 20 µM
NCCCNc1ccc2c3c(nn2CCNCCO)-c2c(O)ccc(O)c2C(=O)c13 [PIROXANTRONE],> 20 µM,> 20 µM
COc1cc(N)c(Cl)cc1C(=O)NC1CCN(CCCOc2ccc(F)cc2)CC1OC (configuration not stated) [CISAPRIDE],> 20 µM,> 20 µM
COc1cccc(OC)c1C(=O)N[C@@H]1C(=O)N2[C@@H]1SC(C)(C)[C@@H]2C(=O)O [METHICILLIN],> 20 µM,> 20 µM
CO[C@@H]1[C@@H](O[C@@H]2O[C@H](C)[C@@H](O[C@H]3C[C@@](C)(O)[C@@H](OC(=O)CC(C)C)[C@H](C)O3)[C@H](N(C)C)[C@H]2O)[C@@H](CC=O)C[C@@H](C)[C@@H](O)/C=C/C=C/C[C@@H](C)OC(=O)C[C@H]1OC(C)=O [JOSAMYCIN],> 20 µM,> 20 µM
C[C@H]1Oc2cc(cnc2N)-c2c(nn(C)c2C#N)CN(C)C(=O)c2ccc(F)cc21 [LORLATINIB],> 20 µM,> 20 µM
CC(C(=O)Nc1ccc(Cl)cc1)[C@H]1CC[C@@H](c2ccnc3ccc(F)cc32)CC1 (some centres not stated),> 20 µM,> 20 µM
O=C(O)C(=O)Cc1c[nH]c2ccccc12,> 20 µM,> 20 µM
C=CC1=C(C(=O)O)N2C(=O)[C@@H](NC(=O)/C(=N\O)c3csc(N)n3)[C@H]2SC1,> 20 µM,> 20 µM
CCC(=O)OCC(=O)[C@@]1(OC(=O)CC)C(C)CC2C3CCC4=CC(=O)C=CC4(C)[C@@]3(Cl)C(O)CC21C (some centres not stated),> 20 µM,> 20 µM
CC1(O)/C=C\C=C(\CO)C2CC(C)(C)C2(O)CC1 (configuration not stated),> 20 µM,> 20 µM
CC(C(N)C(=O)NC(C(=O)O)C1OC(n2ccc(=O)[nH]c2=O)C(O)C1O)C(O)c1ccc(O)cn1 (configuration not stated),> 20 µM,> 20 µM
Nc1c(Br)cc(Br)cc1CN[C@H]1CC[C@H](O)CC1 [AMBROXOL],> 20 µM,> 20 µM
CC(O)(C(=O)Nc1ccc(C(=O)c2ccccc2)cc1)C(F)(F)F (configuration not stated),> 20 µM,> 20 µM
Cc1nccn1Cc1cc(-c2ccc(F)c(C(F)F)c2)cnn1 [EVT-101 FREE BASE],> 20 µM,> 20 µM
Cc1cc(C(C)(C)CC(C)(C)C)ccc1OCCOCC[N+](C)(C)Cc1ccccc1 [METHYLBENZETHONIUM],> 20 µM,> 20 µM
O=C(C1CCCCC1)N1CC(=O)N2CCc3ccccc3C2C1 (configuration not stated) [PRAZIQUANTEL],> 50.1 µM,> 50.1 µM
NCCCC[C@H](OP(=O)(O)CCCCc1ccccc1)C(=O)N1CCC[C@H]1C(=O)O [CERONAPRIL],> 20 µM,> 20 µM
OC(CN1CCC(Cc2ccc(F)cc2)CC1)c1ccc(Cl)cc1 (configuration not stated) [ELIPRODIL],> 20 µM,> 20 µM
